The test system of test [1] is HeLa cervical adenocarcinoma. Nature of the test: Cell Proliferation Inhibition Assay, Hela (C14 method). In kind it is cell-based. The following applies: Homo sapiens, Table 7. From the text:
(§1) Cell Proliferation Inhibition Assay
(§2) The ability of a test compound to inhibit unregulated cell proliferation may be determined by measuring incorporation of ^14C-labelled thymidine into newly synthesized DNA within cell lines derived from carcinomas originating from several tissues. Accordingly, the effect of a test compound on proliferation of cells with a variety of phenotypes may be determined.
(§3) Carcinoma cell lines used include the HeLa cervical adenocarcinoma from the American Type Culture Collection (ATCC Cat. #CCL2), A375 malignant melanoma (ATCC Cat. #CRL-1619), HCT-116 colon carcinoma (ATCC Cat. #CCL-247), SKBR3 breast carcinoma (ATCC Cat. #HTB-30) and BT474 breast carcinoma (ATCC Cat. #HTB-20).
(§4) The carcinoma cells were trypsinized and counted. The cells (3000-8000 count) were added to each well of a 96-well CytoStar tissue culture treated scintillating microplate (Amersham #RPNQ0160) in complete medium (100 μL) and the plate was then incubated in complete medium for 24 hrs at 37° C. in an inert atmosphere containing 5% CO2.
(§5) Test compound (1 μL) in 100% DMSO was added to the plate test-wells with DMSO only added to control-wells. The plate was incubated in complete medium for a second 24 hr period at 37° C. in an atmosphere containing 5% CO2.
(§6) An aliquot of a solution of Methyl ^14C-thymidine (56 mC/mmol) (NEN #NEC568 or AMersham #CFA532) and complete medium (20 uL to provide 0.2 μCl/well) was then added to each well and the plate was incubated for a third 24 hr period at 37° C. in an atmosphere containing 5% CO2.
(§7) The plate contents were then discarded, the plate washed twice with PBS (200 μL) and then PBS (200 μL) was added to each well. The plate was sealed and the degree of methyl ^14C-thymidine incorporation was quantified on a Packard Top Count.
(§8) Cell proliferation of the Hela cell line was measured using the ATP-Lite method as described in the ATP Lite Kit (Perkin-Elmer Kit Number 6106941) or the C^14 method as described above. Cell proliferation of the other cell lines was measured using the C^14 method.

For a further test, the target named is T1, Lyn kinase (human) (Homo sapiens, UniProt P07948).
T1 construct: purchased Upstate Biotechnology, Lake Placid, N.Y
T1 sequence (P07948 whole entry): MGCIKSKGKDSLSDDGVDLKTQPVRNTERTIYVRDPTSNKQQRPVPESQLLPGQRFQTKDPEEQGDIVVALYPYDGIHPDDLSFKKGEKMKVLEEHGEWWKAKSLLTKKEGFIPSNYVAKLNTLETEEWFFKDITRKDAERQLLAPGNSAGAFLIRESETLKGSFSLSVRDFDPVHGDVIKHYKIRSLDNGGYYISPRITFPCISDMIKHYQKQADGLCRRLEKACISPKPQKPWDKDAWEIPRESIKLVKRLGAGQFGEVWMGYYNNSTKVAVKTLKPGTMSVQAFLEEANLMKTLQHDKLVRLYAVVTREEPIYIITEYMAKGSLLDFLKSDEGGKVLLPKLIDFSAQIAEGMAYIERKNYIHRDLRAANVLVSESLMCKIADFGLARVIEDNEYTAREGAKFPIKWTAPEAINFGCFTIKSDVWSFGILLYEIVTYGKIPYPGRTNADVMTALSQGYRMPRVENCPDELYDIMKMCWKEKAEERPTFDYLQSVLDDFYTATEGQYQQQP
Nature of the test: Lyn Kinase Assay. The conditions noted are these: test concentration of 2 μM. In kind it is biochemical. In outline:
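Radiometric filter-binding assay with recombinant human Lyn, poly(Glu,Tyr) substrate (0.1 mg/mL final), 5 μM ATP plus γ-33P-ATP in MOPS pH 7.5/Mg acetate buffer; 40 min at 30 °C, stopped with phosphoric acid, counted by scintillation. Reported as percent inhibition at 2 μM, with IC50 (μM) where determined.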

The test system of the next test is HCT-116 colon carcinoma. Nature of the test: Cell Proliferation Inhibition Assay, HCT-116 (14C-thymidine). The conditions noted are these: Homo sapiens, HCT-116 cell proliferation. The class given is cell-based.
Excerpt: as §1, §2, §3, §4, §5, §6, §7, §8

A further test has as its target T2, HER-2 (Homo sapiens, UniProt P04626).
T2 construct: His6 with thrombin site (N); purchased Proqinase (Freiburg, Germany)
The test is described as follows: HER-2 Kinase Assay. The class given is biochemical. The conditions noted are these: for IC50: value in parentheses; for inhibition at 1 µM: test concentration of 1 μM. An outline of the steps:
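GST/HIS6-tagged HER-2 aa 679–1255 kinase with biotinylated polyGluTyr (1.5 ng/μL), 1 μM ATP plus γ-33P-ATP, Mg2+/Mn2+, DTT, Hepes pH 7.5; 1 h at 30 °C. Substrate phosphorylation captured on streptavidin scintillation plates after EDTA/PBS washes; values are % inhibition at 1 μM or IC50.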

Some results are limits rather than exact numbers.

T2 sequence (P04626 679-1255): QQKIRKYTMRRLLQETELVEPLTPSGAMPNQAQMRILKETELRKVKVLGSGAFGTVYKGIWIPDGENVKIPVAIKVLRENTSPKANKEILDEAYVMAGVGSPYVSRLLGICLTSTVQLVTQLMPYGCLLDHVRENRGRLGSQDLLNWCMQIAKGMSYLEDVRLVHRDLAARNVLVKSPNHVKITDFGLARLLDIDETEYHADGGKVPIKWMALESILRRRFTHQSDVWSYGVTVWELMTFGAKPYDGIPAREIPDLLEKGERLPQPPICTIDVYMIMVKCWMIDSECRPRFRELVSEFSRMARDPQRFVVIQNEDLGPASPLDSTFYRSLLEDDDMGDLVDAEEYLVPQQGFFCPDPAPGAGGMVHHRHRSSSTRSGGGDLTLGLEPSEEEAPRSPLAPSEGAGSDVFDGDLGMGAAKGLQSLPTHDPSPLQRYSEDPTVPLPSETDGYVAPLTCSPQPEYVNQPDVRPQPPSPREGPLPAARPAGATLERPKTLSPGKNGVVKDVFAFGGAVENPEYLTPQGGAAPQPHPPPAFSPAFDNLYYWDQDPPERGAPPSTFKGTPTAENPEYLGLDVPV

The IC50 is the concentration that gives 50% inhibition. Broadly, the inhibition is the relative decrease from the control value, in per cent. As to `O=C(Nc1ccc(N2CCOCC2)cc1)c1sc2ncnc3c2c1NC(=O)N3c1ccc2c(ccn2Cc2cccc(F)c2)c1` [Cpd 94, 5-[1-(3-fluoro-benzyl)-1H-indol-5-yl]-4-oxo-4,5-dihydro-3H-1-thia-3,5,6,8-tetraaza-acenaphthylene-2-carboxylic acid (4-morpholin-4-yl-phenyl)-amide], the IC50 in test [1] is at least 100 µM; in the test on HCT-116 colon carcinoma it was 100 µM; at HER-2 it was about 10 µM. At Lyn kinase (human), the inhibition at 2 µM was determined as 3%.

In the case of `COc1ccc(NC(=O)c2sc3ncnc4c3c2NC(=O)N4c2ccc(OCc3ccccn3)c(Cl)c2)cc1OC` [Cpd 48, 5-[3-chloro-4-(pyridin-2-ylmethoxy)-phenyl]-4-oxo-4,5-dihydro-3H-1-thia-3,5,6,8-tetraaza-acenaphthylene-2-carboxylic acid (3,4-dimethoxy-phenyl)-amide], the IC50 in test [1] was at least 10 µM; in the test on HCT-116 colon carcinoma, 30.4 µM. In addition, the inhibition at 2 µM against Lyn kinase (human) was found to be 14%. Also, on HER-2, the inhibition at 1 µM turned out to be 45%.

For the molecule `Cc1ccc(Br)cc1N1C(=O)Nc2c(C(=O)Nc3ccc(CN4CCOCC4)cc3)sc3ncnc1c23` [Cpd 109, 5-(5-bromo-2-methyl-phenyl)-4-oxo-4,5-dihydro-3H-1-thia-3,5,6,8-tetraaza-acenaphthylene-2-carboxylic acid (4-morpholin-4-ylmethyl-phenyl)-amide], the IC50 in test [1] was at least 10 µM; with HCT-116 colon carcinoma, 10 µM; at HER-2 it was 0.684 µM. For the same molecule, on Lyn kinase (human), the inhibition at 2 µM came out at 75%.

With `O=C(O)c1sc2ncnc3c2c1NC(=O)N3c1ccc2c(cnn2Cc2cccc(F)c2)c1` [Cpd 79, 5-[1-(3-fluoro-benzyl)-1H-indazol-5-yl]-4-oxo-4,5-dihydro-3H-1-thia-3,5,6,8-tetraaza-acenaphthylene-2-carboxylic acid], the IC50 in test [1] is at least 100 µM; in the test with HCT-116 colon carcinoma it was 100 µM; on HER-2, over 10 µM.

In the case of `O=C(Nc1ccc(CN2CCOCC2)cc1)c1sc2ncnc3c2c1NC(=O)N3c1ccc(OCc2ccccn2)c(Cl)c1` [Cpd 52, 5-[3-chloro-4-(pyridin-2-ylmethoxy)-phenyl]-4-oxo-4,5-dihydro-3H-1-thia-3,5,6,8-tetraaza-acenaphthylene-2-carboxylic acid (4-morpholin-4-ylmethyl-phenyl)-amide], the figures for the IC50 (in test [1]; with HCT-116 colon carcinoma; on HER-2) were at least 100 µM, 100 µM and 0.246 µM, respectively. The inhibition at 2 µM at Lyn kinase (human) came out at 16.2%. For the same molecule, on HER-2, the inhibition at 1 µM came to 95%.

For the molecule `CCOC(=O)c1sc2ncnc3c2c1NC(=O)N3c1ccc2c(cnn2Cc2cccc(F)c2)c1` [Cpd 78, 5-[1-(3-fluoro-benzyl)-1H-indazol-5-yl]-4-oxo-4,5-dihydro-3H-1-thia-3,5,6,8-tetraaza-acenaphthylene-2-carboxylic acid ethyl ester], the values for the IC50 (in test [1]; in the test on HCT-116 colon carcinoma; at HER-2) were at least 100 µM, 100 µM and over 100 µM, respectively.

In the case of `CN1CCC(NC(=O)c2sc3ncnc4c3c2NC(=O)N4c2ccc3c(ccn3Cc3cccc(F)c3)c2)CC1` [Cpd 92, 5-[1-(3-fluoro-benzyl)-1H-indol-5-yl]-4-oxo-4,5-dihydro-3H-1-thia-3,5,6,8-tetraaza-acenaphthylene-2-carboxylic acid (1-methyl-piperidin-4-yl)-amide], the IC50 in test [1] came to 4.3 µM; in the test on HCT-116 colon carcinoma, 4.36 µM; at HER-2, 0.36 µM.

In the case of `O=C(Nc1ccc(CN2CCOCC2)cc1)c1sc2ncnc3c2c1NC(=O)N3c1ccc(Oc2ccc(F)cc2)cc1` [Cpd 110, 5-[4-(4-fluoro-phenoxy)-phenyl]-4-oxo-4,5-dihydro-3H-1-thia-3,5,6,8-tetraaza-acenaphthylene-2-carboxylic acid (4-morpholin-4-ylmethyl-phenyl)-amide], the IC50 in test [1] was 15.5 µM; with HCT-116 colon carcinoma it was 10 µM; at HER-2, 0.161 µM. Moreover, on Lyn kinase (human), the inhibition at 2 µM came out at 21%.

Regarding `O=C(Nc1ccc(CN2CCOCC2)cc1)c1sc2ncnc3c2c1NC(=O)N3c1cccc(Br)c1` [Cpd 36, 5-(3-bromo-phenyl)-4-oxo-4,5-dihydro-3H-1-thia-3,5,6,8-tetraaza-acenaphthylene-2-carboxylic acid (4-morpholin-4-ylmethyl-phenyl)-amide], the IC50 was at least 10 µM in test [1], 67.9 µM in the test on HCT-116 colon carcinoma and 0.295 µM on HER-2. Besides, the inhibition at 1 µM against HER-2 stood at 60%.

Turning to `CCOC(=O)c1sc2ncnc3c2c1NC(=O)N3c1ccc(Oc2ccc(F)cc2)cc1` [Cpd 101, 5-[4-(4-fluoro-phenoxy)-phenyl]-4-oxo-4,5-dihydro-3H-1-thia-3,5,6,8-tetraaza-acenaphthylene-2-carboxylic acid ethyl ester], the IC50 in test [1] was at least 100 µM; with HCT-116 colon carcinoma, 100 µM; on HER-2 it was over 100 µM. The inhibition at 2 µM on Lyn kinase (human) stood at 3%. For the same molecule, the “% Inhibition (Lyn)” value at Lyn kinase (human) (2 µM) stood at 6%.

As to `CCOC(=O)c1sc2ncnc3c2c1NC(=O)N3c1cc(Br)ccc1C` [Cpd 103, 5-(5-bromo-2-methyl-phenyl)-4-oxo-4,5-dihydro-3H-1-thia-3,5,6,8-tetraaza-acenaphthylene-2-carboxylic acid ethyl ester], the figures for the IC50 (in test [1]; in the test with HCT-116 colon carcinoma; at HER-2) were at least 100 µM, 100 µM and over 100 µM, respectively.

In the case of `O=C(Nc1ccc(CN2CCCCC2)cc1)c1sc2ncnc3c2c1NC(=O)N3c1ccc2c(ccn2Cc2cccc(F)c2)c1` [Cpd 87, 5-[1-(3-fluoro-benzyl)-1H-indol-5-yl]-4-oxo-4,5-dihydro-3H-1-thia-3,5,6,8-tetraaza-acenaphthylene-2-carboxylic acid (4-piperidin-1-ylmethyl-phenyl)-amide], the IC50 in test [1] is 3.19 µM; with HCT-116 colon carcinoma, 3.69 µM; at HER-2 it was 0.15 µM.

For the molecule `O=C(O)c1sc2ncnc3c2c1NC(=O)N3c1ccc2c(ccn2Cc2cccc(F)c2)c1` [Cpd 77, 5-[1-(3-fluoro-benzyl)-1H-indol-5-yl]-4-oxo-4,5-dihydro-3H-1-thia-3,5,6,8-tetraaza-acenaphthylene-2-carboxylic acid], the figures for the IC50 (in test [1]; in the test on HCT-116 colon carcinoma; on HER-2) were at least 100 µM, 100 µM and 1.37 µM, respectively.

As for `O=C(Nc1ccc(CN2CCCCC2)cc1)c1sc2ncnc3c2c1NC(=O)N3c1ccc2c(cnn2Cc2cccc(F)c2)c1` [Cpd 80, 5-[1-(3-fluoro-benzyl)-1H-indazol-5-yl]-4-oxo-4,5-dihydro-3H-1-thia-3,5,6,8-tetraaza-acenaphthylene-2-carboxylic acid (4-piperidin-1-ylmethyl-phenyl)-amide], the IC50 is 5.14 µM in test [1], 14 µM in the test with HCT-116 colon carcinoma and 0.121 µM on HER-2.

Turning to `Cc1ccc(N2C(=O)Nc3c(C(=O)NC4CCN(C)CC4)sc4ncnc2c34)cc1Br` [Cpd 116, 5-(3-bromo-4-methyl-phenyl)-4-oxo-4,5-dihydro-3H-1-thia-3,5,6,8-tetraaza-acenaphthylene-2-carboxylic acid (1-methyl-piperidin-4-yl)-amide], the IC50 in test [1] was at least 10 µM; in the test on HCT-116 colon carcinoma, 10 µM; on HER-2, 1.7 µM. For the same molecule, at Lyn kinase (human), the inhibition at 2 µM is -2%.

With `O=C(O)c1sc2ncnc3c2c1NC(=O)N3c1ccc(OCc2ccccn2)c(Cl)c1` [Cpd 38, 5-[3-chloro-4-(pyridin-2-ylmethoxy)-phenyl]-4-oxo-4,5-dihydro-3H-1-thia-3,5,6,8-tetraaza-acenaphthylene-2-carboxylic acid], the IC50 in test [1] is at least 100 µM; in the test with HCT-116 colon carcinoma, 100 µM. The inhibition at 2 µM on Lyn kinase (human) was -16%. Besides, the inhibition at 1 µM against HER-2 is -7%.

For the molecule `O=C(NCCN1CCOCC1)c1sc2ncnc3c2c1NC(=O)N3c1ccc2c(ccn2Cc2cccc(F)c2)c1` [Cpd 93, 5-[1-(3-fluoro-benzyl)-1H-indol-5-yl]-4-oxo-4,5-dihydro-3H-1-thia-3,5,6,8-tetraaza-acenaphthylene-2-carboxylic acid (2-morpholin-4-yl-ethyl)-amide], the IC50 is at least 10 µM in test [1], 10 µM in the test on HCT-116 colon carcinoma and 0.779 µM on HER-2. The inhibition at 2 µM against Lyn kinase (human) was 16%.

For the origin of these results see US7579356B2, “Thia-tetraazaacenaphthylene kinase inhibitors” (Janssen Pharmaceutica NV, priority 2005, dated 2009).
